Measurements taken from US20130066055A1, “NEW BINDER-DRUG CONJUGATES (ADCS) AND USE THEREOF” (Bayer Intellectual Property GmbH, priority 2011, published 2013).
Structures can show the parent of a compound that is named as a salt. Square brackets hold non-standard residues; d marks the D form. Peptide text beside a SMILES is read from it. * marks the point of attachment. X2 = CC(C)[C@@H](C(=O)*)N(C)CCCCCCN1C(=O)CC(SC[C@H](N)C(=O)O)C1=O; X1 = CC(C)[C@@H](C(=O)*)N(C)CCCCCC(=O)NCCCC[C@H](N)C(=O)O; Dolaproine = CO[C@@H]([C@@H]1CCCN1)[C@@H](C)C(=O)O; Dil = CC[C@H](C)[C@H](NC)[C@@H](CC(=O)O)OC; X5 = C[C@@H](N*)[C@@H](O)c1ccccc1; Oxazinan2yl(1,2) = C1CCN(*)OC1; NMeV = CN[C@H](C(=O)O)C(C)C

Legend:
[1] = tested on: Caco-2 cells; test: Caco-2 flux assay for cell permeability; format: in vitro ADME; settings: basal to apical, 2 hours
Method: (§1) The cell permeability of a substance can be investigated by means of in vitro testing in a flux assay using Caco-2 cells [M. D. Troutman and D. R. Thakker, Pharm. Res. 20 (8), 1210-1224 (2003)]. For this purpose, the cells were cultured for 15-16 days on 24-well filter plates. For the determination of permeation, the respective working example was applied in a HEPES buffer to the cells either apically (A) or basally (B) and incubated for 2 hours. After 0 hours and after 2 hours, samples were taken from the cis and trans compartments. The samples were separated by HPLC (Agilent 1200, Böblingen, Germany) using reverse phase columns. The HPLC system was coupled via a Turbo Ion Spray Interface to a Triple Quadropol mass spectrometer API 4000 (Applied Biosystems Applera, Darmstadt, Germany). The permeability was evaluated on the basis of a Papp value, which was calculated using the formula published by Schwab et al. [D. Schwab et al., J. Med. Chem. 46, 1716-1725 (2003)].

[2] = tested on: tubulin; test: Fluorescence-based microtubule (tubulin) polymerization assay; format: biochemical
Method: Tubulin polymerization was investigated using the “Fluorescence-based Microtubule Polymerisation Assay Kit” from Cytoskeleton (Denver, Colo., USA; order number: BK011). With this assay, GTP is added to unpolymerized tubulin, allowing polymerization to take place spontaneously. The assay is based on the binding of the fluorophore 4′,6-di-amidino-2-phenylindole (DAPI) to tubulin. Free and bound DAPI can be differentiated on the basis of different emission spectra.
[…] In addition to the buffer control, paclitaxel, with a polymerization-increasing effect, and vinblastin, with a polymerization inhibiting effect, were run additionally as assay controls. Measurement was carried out using 96-well plates with a half base area. The kinetics of the tubulin polymerization were monitored in a Fluorimeter at 37° C. for 1 hour. The excitation wavelength was 355 nm, and emission was monitored at 460 nm. For the region of linear increase within the first 10 minutes, a calculation was made of the change in fluorescence per minute (ΔF/min), which represents the polymerization rate of the microtubuli. The potency of the test substances was quantified on the basis of their respective reduction of the polymerization rate.

[3] = Caco-2 flux assay for cell permeability; format: in vitro ADME; settings: human, Caco-2 cells, basal to apical
Method: as §1

[4] = target: T1, P-glycoprotein (P-gp, ABCB1) (Homo sapiens, UniProt P08183); test: Flux assay in P-gp overexpressing L-MDR1 cells; format: in vitro ADME; settings: LLC-PK1, basal to apical
T1 construct: expressed in transfected cells; host or cells: LLC-PK1 (pig kidney) cells transfected with human MDR1 (L-MDR1 cells)
Method: The substrate properties of a substance for P-gp (ABCB1) were determined by means of a flux assay using LLC-PK1 cells which overexpress P-gp (L-MDR1 cells) [A. H. Schinkel et al., J. Clin. Invest. 96, 1698-1705 (1995)]. For this purpose, the LLC-PK1 cells or L-MDR1 cells were cultured on 96-well filter plates for 3-4 days. For determination of the permeation, the respective test substance, alone or in the presence of an inhibitor (such as Ivermectin or Verapamil, for example), was applied in a HEPES buffer to the cells either apically (A) or basally (B) and incubated for 2 hours. After 0 hours and after 2 hours, samples were taken from the cis and trans compartments. The samples were separated by HPLC using reverse phase columns. The HPLC system was coupled via a Turbo Ion Spray Interface to a Triple Quadropol mass spectrometer API 3000 (Applied Biosystems Applera, Darmstadt, Germany). The permeability was evaluated on the basis of a Papp value which was calculated using the formula published by Schwab et al. [D. Schwab et al., J. Med. Chem. 46, 1716-1725 (2003)].

T1 sequence (P08183 whole entry): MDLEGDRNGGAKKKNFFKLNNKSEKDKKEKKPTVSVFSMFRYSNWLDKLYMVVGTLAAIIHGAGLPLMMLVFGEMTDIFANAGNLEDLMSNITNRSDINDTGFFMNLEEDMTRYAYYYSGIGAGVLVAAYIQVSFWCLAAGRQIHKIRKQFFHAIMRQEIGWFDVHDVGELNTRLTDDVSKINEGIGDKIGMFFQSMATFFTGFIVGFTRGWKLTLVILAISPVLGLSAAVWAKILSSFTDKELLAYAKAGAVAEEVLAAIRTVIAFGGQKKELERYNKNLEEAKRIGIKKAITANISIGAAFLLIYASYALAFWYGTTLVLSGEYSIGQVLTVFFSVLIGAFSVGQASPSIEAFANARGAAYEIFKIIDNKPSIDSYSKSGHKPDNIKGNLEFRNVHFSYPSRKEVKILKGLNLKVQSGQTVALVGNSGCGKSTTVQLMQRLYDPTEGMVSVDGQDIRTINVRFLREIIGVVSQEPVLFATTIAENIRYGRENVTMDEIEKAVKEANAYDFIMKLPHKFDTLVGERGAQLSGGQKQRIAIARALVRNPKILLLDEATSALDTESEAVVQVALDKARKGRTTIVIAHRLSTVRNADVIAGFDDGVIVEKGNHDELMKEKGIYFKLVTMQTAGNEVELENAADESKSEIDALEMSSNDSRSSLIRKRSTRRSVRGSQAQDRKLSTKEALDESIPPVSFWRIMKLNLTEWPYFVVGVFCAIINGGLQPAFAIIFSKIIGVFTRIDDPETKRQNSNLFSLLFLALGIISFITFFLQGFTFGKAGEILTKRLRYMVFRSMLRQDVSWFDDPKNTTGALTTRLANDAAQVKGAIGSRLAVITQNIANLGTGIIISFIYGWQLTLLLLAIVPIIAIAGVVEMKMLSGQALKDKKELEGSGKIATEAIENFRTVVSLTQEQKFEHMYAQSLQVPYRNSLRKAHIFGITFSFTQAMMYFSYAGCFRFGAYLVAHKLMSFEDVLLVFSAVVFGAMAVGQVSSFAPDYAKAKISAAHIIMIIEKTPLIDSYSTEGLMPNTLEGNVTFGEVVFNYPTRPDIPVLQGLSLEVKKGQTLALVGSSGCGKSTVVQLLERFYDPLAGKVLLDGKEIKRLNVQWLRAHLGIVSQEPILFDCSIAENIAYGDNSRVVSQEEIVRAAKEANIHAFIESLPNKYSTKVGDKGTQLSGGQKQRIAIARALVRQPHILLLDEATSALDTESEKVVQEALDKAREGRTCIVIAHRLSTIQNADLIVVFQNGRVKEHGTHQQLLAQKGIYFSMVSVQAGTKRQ

SMILES | Papp (B-A) [1] [×10⁻⁶ cm/s] | inhibition of tubulin polymerization [2] | Tubulin polymerization in the presence of toxophore in [%]. Tubulin polymerization rate at 1 μM MMAF set at 100% ([2]; toxophore 1 μM) [%] | Tubulin polymerization in the presence of toxophore in [%]. Tubulin polymerization rate at 1 μM MMAF set at 100% ([2]; toxophore 10 μM) [%] | Papp B→A at 2 h [3] [×10⁻⁶ cm/s] | Papp B→A at 2 h [4] [×10⁻⁶ cm/s]
CC[C@H](C)[C@@H]([C@@H](CC(=O)N1CCC[C@H]1[C@H](OC)[C@@H](C)C(=O)N[C@H](C)[C@@H](O)c1ccccc1)OC)N(C)C(=O)[C@@H](NC(=O)[C@@H](NC)C(C)C)C(C)C [MMAE, monomethylauristatin E, reference compound] (H-[NMeV]V[Dil][Dolaproine]-X5) | 7.3 |  |  |  |  | 
CC[C@H](C)[C@@H]([C@@H](CC(=O)N1CCC[C@H]1[C@H](OC)[C@@H](C)C(=O)N[C@@H](Cc1ccccc1)C(=O)O)OC)N(C)C(=O)[C@@H](NC(=O)[C@@H](NC)C(C)C)C(C)C [MMAF, Monomethylauristatin F, reference compound] (H-[NMeV]V[Dil][Dolaproine]F-OH) | 7.3 | inhibit tubulin polymerization as a function of their concentration | 100 | 34 |  | 
CC[C@H](C)[C@@H]([C@@H](CC(=O)N1CCC[C@H]1[C@H](OC)[C@@H](C)C(=O)N[C@@H](Cc1c[nH]c2ccccc12)C(N)=O)OC)N(C)C(=O)[C@@H](NC(=O)[C@H](C(C)C)N(C)CCCCCCN1C(=O)CC(SC[C@H](N)C(=O)O)C1=O)C(C)C (stereo partly drawn) [Example 74, N-[6-(3-{[(2R)-2-Amino-2-carboxyethyl]sulphanyl}-2,5-dioxopyrrolidin-1-yl)hexyl]-N-methyl-L-valyl-N-[(3R,4S,5S)-1-{(2S)-2-[(1R,2R)-3-{[(2S)-1-amino-3-(1H-indol-3-yl)-1-oxopropan-2-yl]amino}-1-methoxy-2-methyl-3-oxopropyl]pyrrolidin-1-yl}-3-methoxy-5-methyl-1-oxoheptan-4-yl]-N-methyl-L-valinamide] (X2-V[Dil][Dolaproine]W-NH2) |  |  | 117 | 64 | 0.5 | 0.36
CC[C@H](C)[C@@H]([C@@H](CC(=O)N1CCC[C@H]1[C@H](OC)[C@@H](C)C(=O)N[C@@H](Cc1c[nH]c2ccccc12)C(N)=O)OC)N(C)C(=O)[C@@H](NC(=O)[C@H](C(C)C)N(C)CCCC(=O)NNC(=O)CCCCCN1C(=O)CC(SC[C@H](N)C(=O)O)C1=O)C(C)C (stereo partly drawn) [Example 71, N-(4-{2-[6-(3-{[(2R)-2-Amino-2-carboxyethyl]sulphanyl}-2,5-dioxopyrrolidin-1-yl)hexanoyl]hydrazino}-4-oxobutyl)-N-methyl-L-valyl-N-[(3R,4S,5S)-1-{(2S)-2-[(1R,2R)-3-{[(2S)-1-amino-3-(1H-indol-3-yl)-1-oxopropan-2-yl]amino}-1-methoxy-2-methyl-3-oxopropyl]pyrrolidin-1-yl}-3-methoxy-5-methyl-1-oxoheptan-4-yl]-N-methyl-L-valinamide] |  |  | 88 | 25 | 0.2 | 0.3
CC[C@H](C)[C@@H]([C@@H](CC(=O)N1CCC[C@H]1[C@H](OC)[C@@H](C)C(=O)N[C@@H](Cc1c[nH]c2ccccc12)C(=O)O)OC)N(C)C(=O)[C@@H](NC(=O)[C@H](C(C)C)N(C)CCCC(=O)NNC(=O)CCCCCN1C(=O)CC(SC[C@H](N)C(=O)O)C1=O)C(C)C (stereo partly drawn) [Example 72, N-(4-{2-[6-(3-{[(2R)-2-Amino-2-carboxyethyl]sulphanyl}-2,5-dioxopyrrolidin-1-yl)hexanoyl]hydrazino}-4-oxobutyl)-N-methyl-L-valyl-N-[(3R,4S,5S)-1-{(2S)-2-[(1R,2R)-3-{[(1S)-1-carboxy-2-(1H-indol-3-yl)ethyl]amino}-1-methoxy-2-methyl-3-oxopropyl]pyrrolidin-1-yl}-3-methoxy-5-methyl-1-oxoheptan-4-yl]-N-methyl-L-valinamide] |  |  | 109 | 27 | 0.16 | 0.36
CC[C@H](C)[C@@H]([C@@H](CC(=O)N1CCC[C@H]1[C@H](OC)[C@@H](C)C(=O)N[C@@H](Cc1c[nH]c2ccccc12)C(=O)N1CCCCO1)OC)N(C)C(=O)[C@@H](NC(=O)[C@H](C(C)C)N(C)CCCCCC(=O)NCCCC[C@H](N)C(=O)O)C(C)C [Example 115, N-(6-{[(5S)-5-Amino-5-carboxypentyl]amino}-6-oxohexyl)-N-methyl-L-valyl-N-[(3R,4S,5S)-1-{(2S)-2-[(1R,2R)-3-{[(2S)-3-(1H-indol-3-yl)-1-(1,2-oxazinan-2-yl)-1-oxopropan-2-yl]amino}-1-methoxy-2-methyl-3-oxopropyl]pyrrolidin-1-yl}-3-methoxy-5-methyl-1-oxoheptan-4-yl]-N-methyl-L-valinamide trifluoroacetate] (X1-V[Dil][Dolaproine]W-{Oxazinan2yl(1,2)}) |  |  | 45 | 1 | 0.2 | 0.6
CC[C@H](C)[C@@H]([C@@H](CC(=O)N1CCC[C@H]1[C@H](OC)[C@@H](C)C(=O)N[C@@H](Cc1c[nH]c2ccccc12)C(=O)O)OC)N(C)C(=O)[C@@H](NC(=O)[C@H](C(C)C)N(C)CCCCCCN1C(=O)CC(SC[C@H](N)C(=O)O)C1=O)C(C)C (stereo partly drawn) [Example 75, N-[6-(3-{[(2R)-2-Amino-2-carboxyethyl]sulphanyl}-2,5-dioxopyrrolidin-1-yl)hexyl]-N-methyl-L-valyl-N-[(3R,4S,5S)-1-{(2S)-2-[(1R,2R)-3-{[(1S)-1-carboxy-2-(1H-indol-3-yl)ethyl]amino}-1-methoxy-2-methyl-3-oxopropyl]pyrrolidin-1-yl}-3-methoxy-5-methyl-1-oxoheptan-4-yl]-N-methyl-L-valinamide] (X2-V[Dil][Dolaproine]W-OH) |  |  | 107 | 25 | 0.1 | 0.4
